In brackets after ≈: the same amount, converted by molar mass. Like-named read-outs stand apart in the source and are kept apart here.

We go through 3 compounds from patent US20050124562A1, “Bis-quinazoline compounds for the treatment of bacterial infections” (priority 2003, published 2005).

Data set [1] relates to S. aureus, E. faecalis, S. pyogenes and S. pneumoniae. The experiment in a line: Broth microdilution MIC (NCCLS), gram-positive strains. It counts as cell-based. Put shortly:
(§1)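 MICs by broth microdilution per NCCLS M-7 A-6 against ATCC strains, including ORSA and VRE; MBCs determined for selected organisms. Serum effect assessed by repeating MIC tests with human serum present.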

The next data set deals with S. aureus ATCC 29213. Briefly: S. aureus murine intra-abdominal sepsis model. As to conditions: 25 mg/kg IP one hour post infection, MLD of S. aureus IP. It counts as in vivo, mice. The protocol:
Typically, the model involves inoculating the intra-peritoneal cavity of the mouse with the minimum lethal dose (MLD) of the test organism. The test antimicrobial agent can be administered by any route (e.g. intravenously, sub-cutaneously, oral, intraperitoneal). Early stage compounds are evaluated following intraperitoneal administration since this is considered to be relevant to systemic treatment since most of the compound will be absorbed into the bloodstream. The compound is then monitored for its ability to protect the mouse from a lethal infection with the test organism in a concentration-dependent manner. At the same time the model provides early data on the potential toxicity of a new compound.
The S. aureus murine intra-abdominal sepsis model was used to evaluate the in vivo efficacy of 2-(6-Methoxy-4-methyl-quinazolin-2-ylamino)-3H-quinazolin-4-ol. […] The animals were then monitored at frequent intervals and the numbers of mice surviving in the different treatment groups was scored and recorded in an attempt to determine the protective dose (PD50). Levofloxacin was evaluated as a positive control (0.875, 1.75, 3.125, 6.25, 12.5 and 25 mg/kg). Vehicle only and saline controls were also evaluated.

Data set [2] relates to reconstituted bacterial DNA polymerase holoenzymes from E. coli, Y. pestis and S. pyogenes. The format is biochemical.
Data set [3] has as its system clinically important bacterial pathogens. Briefly: MIC tests in the presence of human serum. As to conditions: 50% human serum. It counts as cell-based. The procedure: (§2) Representative bis-quinazolines were tested for antibacterial activity using the […] microdilution method to determine their minimum inhibitory concentrations (MICs). All compounds were tested using standard methods in accordance with NCCLS guidelines (National Committee for Clinical Laboratory Standards. 2003. Methods for dilution antimicrobial susceptibility testing for bacteria that grow aerobically. Approved Standard M-7 A-6, NCCLS, Wayne, Pa.). The bacterial strains used in the susceptibility tests were obtained from the American Type Culture Collection (ATCC) and included resistant phenotypes such as oxacillin-resistant S. aureus (ORSA) and vancomycin-resistant enterococci (VRE). The minimum bactericidal concentrations (MBCs) were determined for selected organisms. The effect of protein binding on the antibacterial activity of representative bis-quinazolines were determined by conducting MIC tests in the presence of human serum.

Data set [4] can be described thus: Single dose toxicity study in the mouse. As to conditions: single dose IP, 2.5 to 25 mg/kg, female Swiss-Webster mice, monitored one week. It counts as in vivo. The procedure:
A single dose toxicity study was conducted in the mouse prior to evaluating the compound for in vivo efficacy. 2-(6-Methoxy-4-methyl-quinazolin-2-ylamino)-3H-quinazolin-4-ol was prepared in a vehicle consisting of 10% DMSO, 10% ethanol and 80% saline that contained 3% β-cyclodextrin. The compound was administered as a single dose to the peritoneal cavity of female Swiss-Webster mice at the six concentrations (2.5, 5, 10, 15, 20 and 25 mg/kg) proposed for evaluation in the efficacy study. The mice were monitored for toxicity for one week following compound administration.

In data set [5] the test system is clinically important gram-positive pathogens. Briefly: Whole cell antibacterial (MIC) and bactericidal (MBC) activity. It counts as cell-based. The procedure:
as §2

For another data set, the system named is H. influenzae. The experiment in a line: Broth microdilution MIC (NCCLS), H. influenzae. The format is cell-based. As to conditions: Haemophilus influenzae; some strains of H. influenzae. In short, it runs like this: as §1
In general terms: Broth dilution looks for growth in wells or tubes with falling amounts of substance.

Data set [6] has as its system efflux mutants of E. coli. The experiment in a line: Broth microdilution MIC (NCCLS), E. coli efflux mutants. It counts as cell-based. As to conditions: Escherichia coli, read-out: MICs. Put shortly:
as §1

Another data set has as its system M. catarrhalis. Briefly: Broth microdilution MIC (NCCLS), M. catarrhalis. It counts as cell-based. As to conditions: Moraxella catarrhalis; some strains of M. catarrhalis; read-out: MIC range. In short, it runs like this: as §1
Data set [7] deals with efflux mutants of P. aeruginosa. The experiment in a line: Broth microdilution MIC (NCCLS), P. aeruginosa efflux mutants. It counts as cell-based. As to conditions: Pseudomonas aeruginosa, read-out: MICs. Put shortly:
as §1

Where [8] appears, read: range against some strains of S. aureus, E. faecalis, S. pyogenes and S. pneumoniae, read-out: MIC.

With `COc1ccc2nc(Nc3nc(O)c4ccccc4n3)nc(C)c2c1` [Example 9, 2-(6-Methoxy-4-methyl-quinazolin-2-ylamino)-quinazolin-4-ol], the MIC in data set [1] was 0.06 to 16 µg/mL (≈ 0.18 to 48 µM). Further, the “mice protected from lethal S. aureus infection” value with S. aureus ATCC 29213 is on record as 50%. Further, the “biochemical activity against reconstituted DNA polymerase holoenzymes” value in data set [2] is recorded as “demonstrated biochemical activity”. The “antibacterial activity in the presence of human serum” value in [3] is listed as “activity is evident”. Further, the “tolerability after single dose” value was “All mice tolerated the compound” in data set [4] (listed as 2-(6-Methoxy-4-methyl-quinazolin-2-ylamino)-3H-quinazolin-4-ol) and “well tolerated” in data set [4] (listed as 2-(6-Methoxy-4-methyl-quinazolin-2-ylamino)-3H-quinazolin-4-one). In addition, the “whole cell antibacterial and bactericidal activity” value in [5] was “potent whole cell antibacterial and bactericidal activity”.
`COc1cc2nc(Nc3nc(O)c4cc(OCCN5CCOC(CO)C5)ccc4n3)nc(C)c2cc1OC.O=C(O)C(F)(F)F` (centres unmarked) [Example 170, 2-(6,7-Dimethoxy-4-methyl-quinazolin-2-ylamino)-6-[2-(2-hydroxymethyl-morpholin-4-yl)-ethoxy]-quinazolin-4-ol trifluoroacetate salt]: the MIC was 0.06 to 16 µg/mL in data set [1] (setting [8]); 16 to 32 µg/mL in the data set with H. influenzae; 16 to 64 µg/mL in [6]; 2 to 64 µg/mL in the data set with M. catarrhalis; 64 µg/mL in [7].
Regarding `CCN(CCOc1ccc2nc(Nc3nc(C)c4cc(OC)c(OC)cc4n3)nc(O)c2c1)CCN(C)C.O=C(O)C(F)(F)F` [Example 171, 2-(6,7-Dimethoxy-4-methyl-quinazolin-2-ylamino)-6-{2[(2-dimethylamino-ethyl)-ethyl-amino]-ethoxy}-quinazolin-4-ol trifluoroacetate salt], the MIC in data set [1] (setting [8]) was 0.06 to 16 µg/mL; in the data set on H. influenzae it was 16 to 32 µg/mL; in [6], 16 to 64 µg/mL; in the data set on M. catarrhalis, 2 to 64 µg/mL; in data set [7], 64 µg/mL.
